pEC50, pIC50: −log10 of the molar value.
What was measured:
[1] = molecular target: WRN (BV08), human Werner helicase (Uniprot Q14191, amino acids 517-1235 with L1074F point mutation) (Homo sapiens (Human), UniProt Q14191, L1074F); assay: WRN (BV08) ADP-Glo assay; assay type: biochemical; settings: class symbols A-E, read-out: ADP-Glo_hWRN_IC50
[2] = system: p21 induction in HCT116 cells; assay: p21 induction in HCT116 cells; assay type: cell-based; settings: Homo sapiens, HCT-116, 24 h, HCT116 cells, 24 h compound incubation; read-out: P21_EC50
Outline: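 HCT116 cells, 2,000/well, treated 24 h at 37 °C with 11-point compound dilutions in duplicate. Fixed, then immunostained for p21 and GAPDH and read by near-IR imaging at 800/700 nm. Normalized to DMSO (low) and reference WRN inhibitor (high) controls; EC50 from non-linear regression.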

Sequence of WRN (BV08), human Werner helicase (Uniprot Q14191, amino acids 517-1235 with L1074F point mutation) (Q14191 other isoform, or with tags, fused parts or gaps L1074F (already in the parent)): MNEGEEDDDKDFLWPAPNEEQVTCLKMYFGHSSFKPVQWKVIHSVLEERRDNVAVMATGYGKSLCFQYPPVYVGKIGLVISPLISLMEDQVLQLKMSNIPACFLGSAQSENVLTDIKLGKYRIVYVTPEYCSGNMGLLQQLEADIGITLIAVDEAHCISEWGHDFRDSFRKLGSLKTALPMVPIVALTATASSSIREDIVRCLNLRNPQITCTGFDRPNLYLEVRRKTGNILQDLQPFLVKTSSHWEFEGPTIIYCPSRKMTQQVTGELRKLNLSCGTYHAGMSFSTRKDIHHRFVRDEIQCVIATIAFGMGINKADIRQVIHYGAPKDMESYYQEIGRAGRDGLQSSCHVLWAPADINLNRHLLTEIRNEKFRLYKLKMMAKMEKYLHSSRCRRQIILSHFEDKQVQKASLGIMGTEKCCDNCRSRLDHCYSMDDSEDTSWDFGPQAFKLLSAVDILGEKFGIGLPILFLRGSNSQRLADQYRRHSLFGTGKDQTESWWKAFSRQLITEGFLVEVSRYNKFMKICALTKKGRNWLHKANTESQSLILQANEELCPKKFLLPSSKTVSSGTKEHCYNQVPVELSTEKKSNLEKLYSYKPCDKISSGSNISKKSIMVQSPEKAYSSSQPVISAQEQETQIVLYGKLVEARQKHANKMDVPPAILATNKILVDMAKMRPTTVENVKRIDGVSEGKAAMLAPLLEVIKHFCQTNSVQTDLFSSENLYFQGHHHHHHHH

Row | pIC50 [1] | pEC50 [2] | SMILES
1 | 7.30 to 8.30 | > 6.30 | CCc1c(N2CCN(C(=O)c3ncnc(C)c3O)[C@H]3CC[C@@H]32)c(=O)c2nc(N(C)C)cnc2n1CC(=O)Nc1ccc(OC(F)(F)F)cc1Cl [I-199, N-[2-chloro-4-(trifluoromethoxy)phenyl]-2-[2-(dimethylamino)-6-ethyl-7-[(1S,6S)-5-(5-hydroxy-6-methylpyrimidine-4-carbonyl)-2,5-diazabicyclo[4.2.0]octan-2-yl]-8-oxo-5H,8H-pyrido[2,3-b]pyrazin-5-yl]acetamide]
2 | 7.30 to 8.30 | > 6.30 | CCc1c(N2CCN(C(=O)c3ncnc(C)c3O)[C@H]3CC[C@@H]32)c(=O)c2nc(N(C)C)cnc2n1CC(=O)Nc1ccc(S(F)(F)(F)(F)F)cc1Cl [I-200, N-[2-chloro-4-(pentafluoro-lambda6-sulfanyl)phenyl]-2-[2-(dimethylamino)-6-ethyl-7-[(1S,6S)-5-(5-hydroxy-6-methylpyrimidine-4-carbonyl)-2,5-diazabicyclo[4.2.0]octan-2-yl]-8-oxo-5H,8H-pyrido[2,3-b]pyrazin-5-yl]acetamide]
3 | 7.30 to 8.30 | 5.30 to 5.70 | CCc1c(N2CCN(C(=O)c3ncnc(C)c3O)CC2)c(=O)c2nc(-n3cccn3)cnc2n1CC(=O)Nc1ccc(C(F)(F)F)cc1Cl [I-201, N-[2-chloro-4-(trifluoromethyl)phenyl]-2-{6-ethyl-7-[4-(5-hydroxy-6-methylpyrimidine-4-carbonyl)piperazin-1-yl]-8-oxo-2-(1H-pyrazol-1-yl)-5H,8H-pyrido[2,3-b]pyrazin-5-yl}acetamide]
4 | ≥ 8.30 | 5.70 to 6.30 | CCc1c(N2CCN(C(=O)c3ncc4c(c3O)OCC4)CC2)c(=O)c2nc(N(C)C3CC3)cnc2n1CC(=O)Nc1ccc(C(F)(F)F)cc1Cl [I-203, N-[2-chloro-4-(trifluoromethyl)phenyl]-2-{2-[cyclopropyl(methyl)amino]-6-ethyl-7-(4-{7-hydroxy-2H,3H-furo[3,2-c]pyridine-6-carbonyl}piperazin-1-yl)-8-oxo-5H,8H-pyrido[2,3-b]pyrazin-5-yl}acetamide]
5 | 7.30 to 8.30 | > 6.30 | CCc1c(N2CCN(C(=O)c3c(OC)ncc(C)c3O)CC2)c(=O)c2nc(N(C)C)cnc2n1CC(=O)Nc1ccc(C(F)(F)F)cc1Cl [I-204, N-[2-chloro-4-(trifluoromethyl)phenyl]-2-[2-(dimethylamino)-6-ethyl-7-[4-(4-hydroxy-2-methoxy-5-methylpyridine-3-carbonyl)piperazin-1-yl]-8-oxo-5H,8H-pyrido[2,3-b]pyrazin-5-yl]acetamide]
6 | 7.30 to 8.30 | > 6.30 | CCc1c(N2CCN(C(=O)c3ncnc(C)c3O)CC2)c(=O)c2nc(N(C)C3(C)CC3)cnc2n1CC(=O)Nc1ccc(C(F)(F)F)cc1Cl [I-205, N-[2-chloro-4-(trifluoromethyl)phenyl]-2-{6-ethyl-7-[4-(5-hydroxy-6-methylpyrimidine-4-carbonyl)piperazin-1-yl]-2-[methyl(1-methylcyclopropyl)amino]-8-oxo-5H,8H-pyrido[2,3-b]pyrazin-5-yl}acetamide]
7 | 7.30 to 8.30 | 5.30 to 5.70 | CCc1c(N2CCN(C(=O)c3ncnc(C)c3O)CC2)c(=O)c2nc(N3CCC34COC4)cnc2n1CC(=O)Nc1ccc(C(F)(F)F)cc1Cl [I-207, N-[2-chloro-4-(trifluoromethyl)phenyl]-2-{6-ethyl-7-[4-(5-hydroxy-6-methylpyrimidine-4-carbonyl)piperazin-1-yl]-2-{6-oxa-1-azaspiro[3.3]heptan-1-yl}-8-oxo-5H,8H-pyrido[2,3-b]pyrazin-5-yl}acetamide]
8 | 7.30 to 8.30 | > 6.30 | CCc1c(N2CCN(C(=O)c3ncnc(C)c3O)[C@H]3CC[C@@H]32)c(=O)c2nc(N(C)C)cnc2n1CC(=O)Nc1ccc(OC(F)(F)F)cc1F [I-210, 2-[2-(dimethylamino)-6-ethyl-7-[(1S,6S)-5-(5-hydroxy-6-methylpyrimidine-4-carbonyl)-2,5-diazabicyclo[4.2.0]octan-2-yl]-8-oxo-5H,8H-pyrido[2,3-b]pyrazin-5-yl]-N-[2-fluoro-4-(trifluoromethoxy)phenyl]acetamide]
9 | 7.30 to 8.30 | > 6.30 | [2H]C([2H])([2H])N(c1nc2c(=O)c(N3CCN(C(=O)c4ncnc(C)c4O)[C@H]4CC[C@@H]43)c(CC)n(CC(=O)Nc3ccc(C(F)(F)F)cc3F)c2nc1C)C([2H])([2H])[2H] [I-211]
10 | 7.30 to 8.30 | 5.70 to 6.30 | CCc1c(N2CCN(C(=O)c3nccc(F)c3O)CC2)c(=O)c2nc(N(C)C)cnc2n1CC(=O)Nc1ccc(C(F)(F)F)cc1Cl [I-212, N-[2-chloro-4-(trifluoromethyl)phenyl]-2-[2-(dimethylamino)-6-ethyl-7-[4-(4-fluoro-3-hydroxypyridine-2-carbonyl)piperazin-1-yl]-8-oxo-5H,8H-pyrido[2,3-b]pyrazin-5-yl]acetamide]
11 | 7.30 to 8.30 | 5.70 to 6.30 | CCc1c(C2=CCN(C(=O)c3ncnc(C)c3O)CC2)c(=O)c2nc(N(C)C)cnc2n1CC(=O)Nc1ccc(C(F)(F)F)cc1Cl [I-213, N-[2-chloro-4-(trifluoromethyl)phenyl]-2-[2-(dimethylamino)-6-ethyl-7-[1-(5-hydroxy-6-methylpyrimidine-4-carbonyl)-1,2,3,6-tetrahydropyridin-4-yl]-8-oxo-5H,8H-pyrido[2,3-b]pyrazin-5-yl]acetamide]
12 | 7.30 to 8.30 | > 6.30 | [2H]C([2H])([2H])N(c1cnc2c(n1)c(=O)c(N1CCN(C(=O)c3ncnc(C)c3O)[C@H]3CC[C@@H]31)c(CC)n2CC(=O)Nc1ccc(C(F)(F)F)cc1F)C([2H])([2H])[2H] [I-214, 2-{2-[di(2H3)methylamino]-6-ethyl-7-[(1S,6S)-5-(5-hydroxy-6-methylpyrimidine-4-carbonyl)-2,5-diazabicyclo[4.2.0]octan-2-yl]-8-oxo-5H,8H-pyrido[2,3-b]pyrazin-5-yl}-N-[2-fluoro-4-(trifluoromethyl)phenyl]acetamide]
13 | 6.30 to 7.00 | < 5.30 | CCc1c(N2CCN(C(=O)c3ncnc(C)c3O)[C@@H]3CCC[C@H]32)c(=O)c2nc(N(C)C)cnc2n1CC(=O)Nc1ccc(C(F)(F)F)cc1Cl [I-215, 2-{7-[(4aR,7aR)-4-(5-hydroxy-6-methylpyrimidine-4-carbonyl)-octahydro-1H-cyclopenta[b]pyrazin-1-yl]-2-(dimethylamino)-6-ethyl-8-oxo-5H,8H-pyrido[2,3-b]pyrazin-5-yl}-N-[2-chloro-4-(trifluoromethyl)phenyl]acetamide]
14 | 7.00 to 7.30 | < 5.30 | CCc1c(N2CCN(C(=O)c3ncnc(C)c3O)C3(CCC3)C2)c(=O)c2nc(N(C)C)cnc2n1CC(=O)Nc1ccc(C(F)(F)F)cc1Cl [I-216, N-[2-chloro-4-(trifluoromethyl)phenyl]-2-[2-(dimethylamino)-6-ethyl-7-[5-(5-hydroxy-6-methylpyrimidine-4-carbonyl)-5,8-diazaspiro[3.5]nonan-8-yl]-8-oxo-5H,8H-pyrido[2,3-b]pyrazin-5-yl]acetamide]
15 | 6.30 to 7.00 | < 5.30 | CCc1c(N2CCN(C(=O)c3ncnc(C)c3O)CC2)c(=O)c2nc(N(C)S(C)(=O)=O)cnc2n1CC(=O)Nc1ccc(C(F)(F)F)cc1Cl [I-217, N-[2-chloro-4-(trifluoromethyl)phenyl]-2-{6-ethyl-7-[4-(5-hydroxy-6-methylpyrimidine-4-carbonyl)piperazin-1-yl]-2-(N-methylmethanesulfonamido)-8-oxo-5H,8H-pyrido[2,3-b]pyrazin-5-yl}acetamide]
16 | ≥ 8.30 | 5.70 to 6.30 | CCc1c(N2CCN(C(=O)c3nccc(Cl)c3O)CC2)c(=O)c2nc(N(C)C)cnc2n1CC(=O)Nc1ccc(C(F)(F)F)cc1Cl [I-218, 2-{7-[4-(4-chloro-3-hydroxypyridine-2-carbonyl)piperazin-1-yl]-2-(dimethylamino)-6-ethyl-8-oxo-5H,8H-pyrido[2,3-b]pyrazin-5-yl}-N-[2-chloro-4-(trifluoromethyl)phenyl]acetamide]
17 | 7.30 to 8.30 | < 5.30 | CCc1c(C2CCN(C(=O)c3ncnc(C)c3O)CC2)c(=O)c2nc(N(C)C)cnc2n1CC(=O)Nc1ccc(C(F)(F)F)cc1Cl [I-221, N-[2-chloro-4-(trifluoromethyl)phenyl]-2-[2-(dimethylamino)-6-ethyl-7-[1-(5-hydroxy-6-methylpyrimidine-4-carbonyl)piperidin-4-yl]-8-oxo-5H,8H-pyrido[2,3-b]pyrazin-5-yl]acetamide]
18 | 7.30 to 8.30 | > 6.30 | CCc1c(N2CCN(C(=O)c3ncnc(C)c3O)[C@H]3CC[C@@H]32)c(=O)c2nc(N(C)C)cnc2n1CC(=O)Nc1ccc(C(F)(F)F)nc1Cl [I-222, N-[2-chloro-6-(trifluoromethyl)pyridin-3-yl]-2-[2-(dimethylamino)-6-ethyl-7-[(1S,6S)-5-(5-hydroxy-6-methylpyrimidine-4-carbonyl)-2,5-diazabicyclo[4.2.0]octan-2-yl]-8-oxo-5H,8H-pyrido[2,3-b]pyrazin-5-yl]acetamide]
19 | 7.30 to 8.30 | 5.70 to 6.30 | CCc1c(N2CCN(C(=O)c3ncnc(C)c3O)CC2)c(=O)c2nc(C3CCC3)cnc2n1CC(=O)Nc1ccc(C(F)(F)F)cc1Cl [I-223, N-[2-chloro-4-(trifluoromethyl)phenyl]-2-{2-cyclobutyl-6-ethyl-7-[4-(5-hydroxy-6-methylpyrimidine-4-carbonyl)piperazin-1-yl]-8-oxo-5H,8H-pyrido[2,3-b]pyrazin-5-yl} acetamide]

Row | SMILES | pIC50 [1] | pEC50 [2]
20 | CCc1c(N2C[C@H]3CC[C@@H](C2)N3C(=O)c2ncnc(C)c2O)c(=O)c2nc(N(C)C)cnc2n1CC(=O)Nc1ccc(C(F)(F)F)cc1Cl [I-206, N-[2-chloro-4-(trifluoromethyl)phenyl]-2-[2-(dimethylamino)-6-ethyl-7-[(1R,5S)-8-(5-hydroxy-6-methylpyrimidine-4-carbonyl)-3,8-diazabicyclo[3.2.1]octan-3-yl]-8-oxo-5H,8H-pyrido[2,3-b]pyrazin-5-yl]acetamide] | 7.30 to 8.30 | < 5.30
